Active and inactive are the calls of the source.
Key:
[1] = target: Protein-tyrosine kinase 2-beta (Homo sapiens, UniProt Q14289)
[2] = target: Insulin receptor (Homo sapiens, UniProt P06213)
[3] = target: Elongation factor Tu, mitochondrial (Homo sapiens, UniProt P49411)
[4] = target: T1, Serine/threonine-protein kinase ULK3 (Homo sapiens, UniProt Q6PHR2)
T1 sequence (Q6PHR2 whole entry): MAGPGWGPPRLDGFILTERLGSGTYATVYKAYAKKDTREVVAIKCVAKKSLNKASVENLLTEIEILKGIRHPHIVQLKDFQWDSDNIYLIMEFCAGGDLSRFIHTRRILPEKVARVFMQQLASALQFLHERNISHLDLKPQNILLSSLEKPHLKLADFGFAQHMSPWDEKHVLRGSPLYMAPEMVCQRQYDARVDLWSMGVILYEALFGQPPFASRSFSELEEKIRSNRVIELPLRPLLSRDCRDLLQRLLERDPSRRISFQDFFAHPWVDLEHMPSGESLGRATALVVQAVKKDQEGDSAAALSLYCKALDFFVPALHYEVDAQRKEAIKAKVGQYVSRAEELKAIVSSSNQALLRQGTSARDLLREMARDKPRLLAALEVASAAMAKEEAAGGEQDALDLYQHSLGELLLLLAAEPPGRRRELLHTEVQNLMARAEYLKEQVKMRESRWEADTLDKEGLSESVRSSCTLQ

[5] = target: T2, Mitogen-activated protein kinase kinase kinase 6 (Homo sapiens, UniProt O95382)
T2 sequence (O95382 whole entry): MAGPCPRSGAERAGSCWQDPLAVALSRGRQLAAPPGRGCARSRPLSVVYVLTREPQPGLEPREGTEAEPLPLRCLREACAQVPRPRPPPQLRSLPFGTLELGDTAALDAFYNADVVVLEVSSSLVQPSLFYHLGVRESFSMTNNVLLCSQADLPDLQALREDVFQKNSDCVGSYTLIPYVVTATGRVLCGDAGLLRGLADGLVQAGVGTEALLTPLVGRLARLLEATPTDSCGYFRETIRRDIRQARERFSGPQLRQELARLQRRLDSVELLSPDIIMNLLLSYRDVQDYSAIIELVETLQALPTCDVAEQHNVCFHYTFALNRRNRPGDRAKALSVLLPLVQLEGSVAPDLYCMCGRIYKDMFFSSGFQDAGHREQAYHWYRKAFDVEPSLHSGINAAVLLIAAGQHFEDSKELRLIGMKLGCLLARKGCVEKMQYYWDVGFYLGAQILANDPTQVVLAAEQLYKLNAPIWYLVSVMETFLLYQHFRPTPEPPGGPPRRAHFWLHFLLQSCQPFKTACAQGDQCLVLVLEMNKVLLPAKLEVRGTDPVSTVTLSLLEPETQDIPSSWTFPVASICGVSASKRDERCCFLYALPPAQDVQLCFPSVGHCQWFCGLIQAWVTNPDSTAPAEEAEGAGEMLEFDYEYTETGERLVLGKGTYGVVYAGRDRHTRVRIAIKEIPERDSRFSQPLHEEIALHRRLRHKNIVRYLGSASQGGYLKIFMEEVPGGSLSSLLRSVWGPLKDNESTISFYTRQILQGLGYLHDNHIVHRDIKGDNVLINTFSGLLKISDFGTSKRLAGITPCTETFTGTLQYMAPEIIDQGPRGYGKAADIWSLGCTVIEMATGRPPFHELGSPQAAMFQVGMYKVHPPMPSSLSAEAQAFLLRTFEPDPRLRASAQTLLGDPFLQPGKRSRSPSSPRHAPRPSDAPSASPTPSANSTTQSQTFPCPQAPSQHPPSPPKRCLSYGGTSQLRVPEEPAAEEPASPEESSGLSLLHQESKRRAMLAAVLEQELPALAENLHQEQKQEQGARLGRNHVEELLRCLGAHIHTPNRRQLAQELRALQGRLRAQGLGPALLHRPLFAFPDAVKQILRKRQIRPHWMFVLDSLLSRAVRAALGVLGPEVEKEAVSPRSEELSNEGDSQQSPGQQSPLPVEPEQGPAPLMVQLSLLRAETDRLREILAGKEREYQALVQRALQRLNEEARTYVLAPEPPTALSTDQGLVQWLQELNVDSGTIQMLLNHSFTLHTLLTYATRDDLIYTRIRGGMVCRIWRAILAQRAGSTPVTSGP

[6] = target: Tyrosine-protein kinase CSK (Homo sapiens, UniProt P41240)
[7] = target: Serine/threonine-protein kinase 16 (Homo sapiens, UniProt O75716)
[8] = target: T3, MAP kinase-activated protein kinase 5 (Homo sapiens, UniProt Q8IW41)
T3 sequence (Q8IW41 whole entry): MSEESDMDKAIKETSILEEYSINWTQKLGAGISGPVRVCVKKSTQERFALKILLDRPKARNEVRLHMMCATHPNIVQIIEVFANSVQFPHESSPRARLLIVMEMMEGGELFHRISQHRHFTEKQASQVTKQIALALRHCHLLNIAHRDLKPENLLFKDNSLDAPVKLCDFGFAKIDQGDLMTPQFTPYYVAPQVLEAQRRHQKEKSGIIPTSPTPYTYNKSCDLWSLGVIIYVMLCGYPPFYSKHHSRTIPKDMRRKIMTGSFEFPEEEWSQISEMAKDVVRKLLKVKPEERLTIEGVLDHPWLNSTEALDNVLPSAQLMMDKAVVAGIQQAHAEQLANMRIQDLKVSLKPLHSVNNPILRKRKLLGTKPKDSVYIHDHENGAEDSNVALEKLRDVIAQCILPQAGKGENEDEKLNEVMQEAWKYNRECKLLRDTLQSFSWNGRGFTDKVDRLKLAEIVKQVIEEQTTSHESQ

[9] = target: Mitogen-activated protein kinase 3 (Homo sapiens, UniProt P27361)
[10] = target: GTP-binding protein 4 (Homo sapiens, UniProt Q9BZE4)
[11] = target: Casein kinase I isoform delta (Homo sapiens, UniProt P48730)
[12] = target: Insulin-like growth factor 1 receptor (Homo sapiens, UniProt P08069)
[13] = target: Mitogen-activated protein kinase 8 (Homo sapiens, UniProt P45983)
Also: in the data inactive means no Kd found up to 30 µM.

Insulin-like growth factor 1 receptor, sequence (P08069 31-736 limits assumed): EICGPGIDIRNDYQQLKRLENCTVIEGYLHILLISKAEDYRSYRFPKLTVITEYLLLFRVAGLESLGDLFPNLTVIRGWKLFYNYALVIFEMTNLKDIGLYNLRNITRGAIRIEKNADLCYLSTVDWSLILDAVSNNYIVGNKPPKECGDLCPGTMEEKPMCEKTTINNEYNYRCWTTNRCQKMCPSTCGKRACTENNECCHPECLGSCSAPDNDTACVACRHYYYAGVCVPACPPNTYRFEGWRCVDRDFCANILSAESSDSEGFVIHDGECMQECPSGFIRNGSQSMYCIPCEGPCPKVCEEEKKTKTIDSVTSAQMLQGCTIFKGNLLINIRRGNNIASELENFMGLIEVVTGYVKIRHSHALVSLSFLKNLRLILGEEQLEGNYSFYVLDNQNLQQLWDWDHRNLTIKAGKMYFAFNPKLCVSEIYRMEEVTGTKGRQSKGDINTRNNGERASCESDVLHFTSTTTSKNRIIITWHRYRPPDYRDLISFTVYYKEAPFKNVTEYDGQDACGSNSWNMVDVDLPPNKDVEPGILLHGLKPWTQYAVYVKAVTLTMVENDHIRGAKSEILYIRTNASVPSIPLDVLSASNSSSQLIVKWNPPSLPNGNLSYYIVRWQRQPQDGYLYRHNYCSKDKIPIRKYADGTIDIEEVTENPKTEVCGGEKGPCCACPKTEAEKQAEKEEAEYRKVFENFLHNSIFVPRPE
Insulin-like growth factor 1 receptor, sequence (P08069 741-1367 limits assumed): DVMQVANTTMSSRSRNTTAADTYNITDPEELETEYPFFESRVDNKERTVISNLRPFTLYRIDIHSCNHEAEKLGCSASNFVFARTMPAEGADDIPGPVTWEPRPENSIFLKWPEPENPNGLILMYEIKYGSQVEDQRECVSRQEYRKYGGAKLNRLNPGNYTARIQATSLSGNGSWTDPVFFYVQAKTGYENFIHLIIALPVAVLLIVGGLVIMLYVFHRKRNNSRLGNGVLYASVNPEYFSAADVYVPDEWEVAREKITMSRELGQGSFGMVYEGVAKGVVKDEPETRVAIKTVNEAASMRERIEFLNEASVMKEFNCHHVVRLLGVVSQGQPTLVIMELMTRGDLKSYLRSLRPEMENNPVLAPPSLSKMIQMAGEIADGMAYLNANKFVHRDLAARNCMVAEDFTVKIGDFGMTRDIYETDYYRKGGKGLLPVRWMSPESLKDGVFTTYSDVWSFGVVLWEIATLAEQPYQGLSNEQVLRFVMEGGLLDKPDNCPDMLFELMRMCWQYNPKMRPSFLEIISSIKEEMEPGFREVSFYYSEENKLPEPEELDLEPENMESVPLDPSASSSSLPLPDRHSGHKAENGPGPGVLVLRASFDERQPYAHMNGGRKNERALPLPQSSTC
Insulin receptor, sequence (P06213 28-758 limits assumed): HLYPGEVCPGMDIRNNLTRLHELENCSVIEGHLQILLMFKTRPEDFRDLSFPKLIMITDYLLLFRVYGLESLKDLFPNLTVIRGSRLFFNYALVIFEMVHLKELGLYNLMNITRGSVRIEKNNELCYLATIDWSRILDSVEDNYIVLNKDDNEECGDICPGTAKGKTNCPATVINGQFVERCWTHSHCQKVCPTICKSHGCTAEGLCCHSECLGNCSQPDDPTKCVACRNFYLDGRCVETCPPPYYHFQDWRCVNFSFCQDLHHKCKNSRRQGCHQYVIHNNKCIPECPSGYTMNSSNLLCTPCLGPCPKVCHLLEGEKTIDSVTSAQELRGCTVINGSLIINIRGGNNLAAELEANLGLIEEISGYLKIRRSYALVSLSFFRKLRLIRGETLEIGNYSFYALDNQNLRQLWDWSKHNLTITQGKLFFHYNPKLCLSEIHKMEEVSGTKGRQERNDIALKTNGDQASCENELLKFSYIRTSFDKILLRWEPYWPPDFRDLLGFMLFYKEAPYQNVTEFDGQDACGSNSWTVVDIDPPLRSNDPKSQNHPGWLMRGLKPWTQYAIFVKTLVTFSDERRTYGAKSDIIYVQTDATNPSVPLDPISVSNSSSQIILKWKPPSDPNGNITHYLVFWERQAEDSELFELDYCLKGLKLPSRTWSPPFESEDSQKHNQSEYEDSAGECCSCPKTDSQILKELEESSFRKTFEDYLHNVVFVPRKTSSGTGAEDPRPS
Insulin receptor, sequence (P06213 763-1382 limits assumed): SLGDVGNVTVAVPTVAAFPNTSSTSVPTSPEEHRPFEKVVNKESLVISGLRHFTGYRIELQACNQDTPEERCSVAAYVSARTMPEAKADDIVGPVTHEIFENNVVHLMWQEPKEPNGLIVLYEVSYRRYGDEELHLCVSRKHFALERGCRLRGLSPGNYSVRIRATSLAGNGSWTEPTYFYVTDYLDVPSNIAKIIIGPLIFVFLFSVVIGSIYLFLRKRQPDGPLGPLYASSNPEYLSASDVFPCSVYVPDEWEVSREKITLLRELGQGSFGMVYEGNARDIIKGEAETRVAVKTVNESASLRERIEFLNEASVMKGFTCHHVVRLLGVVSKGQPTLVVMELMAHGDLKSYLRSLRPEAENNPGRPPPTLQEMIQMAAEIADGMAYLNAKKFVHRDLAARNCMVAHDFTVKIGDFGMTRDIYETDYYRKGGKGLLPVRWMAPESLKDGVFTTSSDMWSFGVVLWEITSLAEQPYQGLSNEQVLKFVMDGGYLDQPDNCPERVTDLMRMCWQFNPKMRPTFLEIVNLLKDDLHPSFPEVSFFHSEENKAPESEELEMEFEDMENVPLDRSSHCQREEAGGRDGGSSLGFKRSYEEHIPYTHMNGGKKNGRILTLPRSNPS
Casein kinase I isoform delta, sequence (P48730 whole entry, canonical isoform): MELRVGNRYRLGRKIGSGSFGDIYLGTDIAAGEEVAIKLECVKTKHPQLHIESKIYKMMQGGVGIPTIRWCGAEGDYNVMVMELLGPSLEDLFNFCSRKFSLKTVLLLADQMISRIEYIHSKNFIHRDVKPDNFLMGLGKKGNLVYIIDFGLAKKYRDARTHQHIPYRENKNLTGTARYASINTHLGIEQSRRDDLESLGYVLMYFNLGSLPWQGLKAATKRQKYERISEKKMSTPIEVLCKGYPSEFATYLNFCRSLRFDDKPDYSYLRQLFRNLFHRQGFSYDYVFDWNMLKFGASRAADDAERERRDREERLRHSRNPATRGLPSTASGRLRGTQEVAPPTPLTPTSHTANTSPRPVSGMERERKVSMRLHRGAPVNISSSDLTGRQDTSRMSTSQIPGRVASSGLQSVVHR
Mitogen-activated protein kinase 8, sequence (P45983 whole entry): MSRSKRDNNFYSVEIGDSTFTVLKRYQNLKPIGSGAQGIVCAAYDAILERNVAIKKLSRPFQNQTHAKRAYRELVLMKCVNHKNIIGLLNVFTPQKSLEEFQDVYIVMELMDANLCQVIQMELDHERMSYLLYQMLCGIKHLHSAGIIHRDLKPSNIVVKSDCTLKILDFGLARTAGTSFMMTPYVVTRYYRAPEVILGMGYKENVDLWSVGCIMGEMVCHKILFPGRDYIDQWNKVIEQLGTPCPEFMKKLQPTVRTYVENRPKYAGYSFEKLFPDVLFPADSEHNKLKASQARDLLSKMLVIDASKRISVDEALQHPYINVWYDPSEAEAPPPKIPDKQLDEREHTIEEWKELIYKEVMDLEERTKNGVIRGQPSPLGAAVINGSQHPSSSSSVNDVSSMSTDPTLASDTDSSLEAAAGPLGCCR
Serine/threonine-protein kinase 16, sequence (O75716 whole entry): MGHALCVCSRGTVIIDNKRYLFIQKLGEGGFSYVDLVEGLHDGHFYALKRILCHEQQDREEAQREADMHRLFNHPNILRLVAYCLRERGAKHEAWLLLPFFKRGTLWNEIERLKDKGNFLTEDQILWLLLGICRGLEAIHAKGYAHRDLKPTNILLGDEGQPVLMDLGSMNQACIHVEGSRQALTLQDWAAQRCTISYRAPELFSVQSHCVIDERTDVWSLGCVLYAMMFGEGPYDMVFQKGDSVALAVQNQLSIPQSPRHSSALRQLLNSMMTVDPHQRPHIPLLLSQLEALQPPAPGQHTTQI
Mitogen-activated protein kinase 3, sequence (P27361 whole entry): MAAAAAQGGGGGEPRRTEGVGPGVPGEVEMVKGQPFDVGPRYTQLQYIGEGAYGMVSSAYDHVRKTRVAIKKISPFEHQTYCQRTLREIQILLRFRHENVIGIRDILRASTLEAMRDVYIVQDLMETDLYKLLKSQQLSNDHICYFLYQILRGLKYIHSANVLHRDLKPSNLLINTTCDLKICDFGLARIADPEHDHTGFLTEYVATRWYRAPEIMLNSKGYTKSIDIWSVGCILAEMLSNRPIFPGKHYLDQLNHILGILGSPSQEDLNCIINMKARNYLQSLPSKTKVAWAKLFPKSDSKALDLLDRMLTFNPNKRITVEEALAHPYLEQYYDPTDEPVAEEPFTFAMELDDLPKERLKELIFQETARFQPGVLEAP

Row | Kd [2] | Kd [3] | Kd [10] | Compound | Kd [1] | Kd [4] | Kd [5] | Kd [6] | Kd [7] | Kd [8] | Kd [9] | Kd [11] | Kd [12] | Kd [13]
1 | > 30 µM (inactive) | > 30 µM (inactive) | > 30 µM (inactive) | CCN(CCCOc1ccc2c(Nc3cc(CC(=O)Nc4cccc(F)c4)n[nH]3)ncnc2c1)CCOP(=O)(O)O [BARASERTIB] | > 30 µM (inactive) | > 30 µM (inactive) | > 30 µM (inactive) | > 30 µM (inactive) | > 30 µM (inactive) | > 30 µM (inactive) | > 30 µM (inactive) | > 30 µM (inactive) |  | 
2 |  | > 30 µM (inactive) | > 30 µM (inactive) | C[C@@]1(C(=O)Nc2ccc(F)nc2)CCCN1c1nc(Nc2cc(C3CC3)n[nH]2)c2cccn2n1 [BMS-754807] |  |  |  |  |  |  |  |  |  | 
3 |  | > 30 µM (inactive) |  | CCOc1ccn(-c2ccc(F)cc2)c(=O)c1C(=O)Nc1ccc(Oc2ccnc(N)c2Cl)c(F)c1 [BMS-777607] | > 30 µM (inactive) |  |  | > 30 µM (inactive) | > 30 µM (inactive) | > 30 µM (inactive) | > 30 µM (inactive) | > 30 µM (inactive) | > 30 µM (inactive) | > 30 µM (inactive)
4 |  | > 30 µM (inactive) | > 30 µM (inactive) | COc1cc2c(Oc3ccc4[nH]c(C)cc4c3F)ncnc2cc1OCCCN1CCCC1 [CEDIRANIB] |  |  |  |  |  |  |  |  |  | 
5 | > 30 µM (inactive) | > 30 µM (inactive) | > 30 µM (inactive) | Cn1c(=O)n(-c2ccc(C(C)(C)C#N)cc2)c2c3cc(-c4cnc5ccccc5c4)ccc3ncc21 [DACTOLISIB] | > 30 µM (inactive) | > 30 µM (inactive) | > 30 µM (inactive) | > 30 µM (inactive) | > 30 µM (inactive) | > 30 µM (inactive) | > 30 µM (inactive) | > 30 µM (inactive) |  | 
6 |  | > 30 µM (inactive) | > 30 µM (inactive) | CC1(C)CNc2cc(NC(=O)c3cccnc3NCc3ccncc3)ccc21 [MOTESANIB] |  |  |  |  |  |  |  |  |  | 
7 |  | > 30 µM (inactive) | > 30 µM (inactive) | COc1cc2c(N3CCN(C(=O)Nc4ccc(OC(C)C)cc4)CC3)ncnc2cc1OCCCN1CCCCC1 [TANDUTINIB] |  |  |  |  |  |  |  |  |  | 

Second part, the compound before the results:

Row | Compound | Kd [2] | Kd [3] | Kd [10] | Kd [1] | Kd [4] | Kd [5] | Kd [6] | Kd [7] | Kd [8] | Kd [9] | Kd [11] | Kd [12] | Kd [13]
8 | C=CCn1c(=O)c2cnc(Nc3ccc(N4CCN(C)CC4)cc3)nc2n1-c1cccc(C(C)(C)O)n1 [ADAVOSERTIB] | > 30 µM (inactive) | > 30 µM (inactive) | > 30 µM (inactive) | > 30 µM (inactive) | > 30 µM (inactive) | > 30 µM (inactive) | > 30 µM (inactive) | > 30 µM (inactive) | > 30 µM (inactive) | > 30 µM (inactive) | > 30 µM (inactive) |  | 
9 | CN(C)C/C=C/C(=O)Nc1cc2c(Nc3ccc(F)c(Cl)c3)ncnc2cc1O[C@H]1CCOC1 [AFATINIB] |  | > 30 µM (inactive) | > 30 µM (inactive) |  |  |  |  |  |  |  |  |  | 
10 | O=S(=O)(c1cccc2cnccc12)N1CCCNCC1 [FASUDIL] |  | > 30 µM (inactive) | > 30 µM (inactive) | > 30 µM (inactive) | > 30 µM (inactive) | > 30 µM (inactive) | > 30 µM (inactive) | > 30 µM (inactive) | > 30 µM (inactive) | > 30 µM (inactive) |  | > 30 µM (inactive) | 
11 | CCc1nc(C(N)=O)c(Nc2ccc(N3CCC(N4CCN(C)CC4)CC3)c(OC)c2)nc1NC1CCOCC1 [GILTERITINIB] |  | 0.464 µM | > 30 µM (inactive) | 0.51 µM (active) | 0.006 µM (active) | > 30 µM (inactive) | > 30 µM (inactive) | 0.295 µM (active) | > 30 µM (inactive) | > 30 µM (inactive) | > 30 µM (inactive) | > 30 µM (inactive) | 0.736 µM (active)
12 | C[C@]1(O)C[C@@H](c2nc(-c3ccc4ccc(-c5ccccc5)nc4c3)c3c(N)nccn32)C1 [LINSITINIB] |  | > 30 µM (inactive) | > 30 µM (inactive) | > 30 µM (inactive) | > 30 µM (inactive) | > 30 µM (inactive) | > 30 µM (inactive) | > 30 µM (inactive) |  |  |  |  | 
13 | N#CCNC(=O)c1ccc(-c2ccnc(Nc3ccc(N4CCOCC4)cc3)n2)cc1 [MOMELOTINIB] | > 30 µM (inactive) | > 30 µM (inactive) | > 30 µM (inactive) |  |  |  | > 30 µM (inactive) | 1.28 µM (active) | > 30 µM (inactive) | > 30 µM (inactive) | > 30 µM (inactive) | > 30 µM (inactive) | 
14 | CN(c1ncccc1CNc1nc(Nc2ccc3c(c2)CC(=O)N3)ncc1C(F)(F)F)S(C)(=O)=O [PF-00562271] |  | > 30 µM (inactive) | > 30 µM (inactive) |  | > 30 µM (inactive) | > 30 µM (inactive) | > 30 µM (inactive) | 0.138 µM (active) |  | > 30 µM (inactive) |  |  | 
15 | CC(C)CC(=O)Nc1[nH]nc2c1CN(C(=O)C1CCN(C)CC1)C2(C)C [PHA-793887] |  | > 30 µM (inactive) | > 30 µM (inactive) | > 30 µM (inactive) | > 30 µM (inactive) | > 30 µM (inactive) | > 30 µM (inactive) | > 30 µM (inactive) | > 30 µM (inactive) |  | > 30 µM (inactive) | > 30 µM (inactive) | > 30 µM (inactive)
16 | Cn1cnc2c(F)c(Nc3ccc(Br)cc3Cl)c(C(=O)NOCCO)cc21 [SELUMETINIB] |  | > 30 µM (inactive) | > 30 µM (inactive) |  |  |  |  |  |  |  |  |  | 
17 | CN1CCN(c2nc(C3=C(c4c[nH]c5ccccc45)C(=O)NC3=O)c3ccccc3n2)CC1 [SOTRASTAURIN] |  | > 30 µM (inactive) | 8.2 µM | > 30 µM (inactive) | > 30 µM (inactive) | > 30 µM (inactive) | > 30 µM (inactive) | > 30 µM (inactive) | > 30 µM (inactive) | > 30 µM (inactive) | > 30 µM (inactive) | > 30 µM (inactive) | > 30 µM (inactive)
18 | O[C@H]1CC[C@H](Nc2ncc3nc(Nc4c(F)cc(F)cc4F)n([C@H]4CCOC4)c3n2)CC1 [TANZISERTIB] | > 30 µM (inactive) | > 30 µM (inactive) | > 30 µM (inactive) | > 30 µM (inactive) | > 30 µM (inactive) | > 30 µM (inactive) | > 30 µM (inactive) | > 30 µM (inactive) | > 30 µM (inactive) | 3.69 µM (active) | > 30 µM (inactive) | > 30 µM (inactive) | 
